Values joined by “and” are separate entries in the source; they are usually repeats but may differ in a detail not shown here. Identical values can stand only once. “Also recorded” adds a separate entry of the source. Like-named read-outs stand apart in the source and are kept apart here.

Consider four molecules from patent US12358941B2, “Lipidic analogs of anti-cancer stem cell agent” (VIRGINIA COMMONWEALTH UNIVERSITY, priority 2019, dated 2025).

The nature of data set [1]: Pharmacokinetics in rats, plasma concentration by fluorimetry. Type of data set: in vivo, Sprague-Dawley rats. The protocol: The animal protocol was approved by the Institutional Animal Care and Use Committee at VCU. Adult male Sprague-Dawley rats weighing 250-275 g were acclimatized for over 3 days with free access to standard rat diet and tap water. Animals were then placed on overnight fasting (i.e., without diet, but with free access to water) on a day before the PK studies. Each animal was anesthetized with an IP injection of urethane and an aliquot (0.1 mL) of blood was withdrawn as a prior-to-dosing or time 0 sample from the jugular vein with a use of 0.11 M sodium citrate (0.01 mL) as anti-coagulant. Rats (n=4 or 5) received G2.2 or IIb via IV injection or PO administration, while one animal received G2.2 via IP bolus injection. G2.2 and IIb were dissolved in sterile saline (0.1 mL IV and IP; 0.2 mLs PO). A series of blood aliquots (0.1 mL) were sampled from the jugular vein at different time points over 0 to 8 h. The blood samples were immediately centrifuged at 11,750 g for 3 min to yield the plasma samples, which were then stored at −70° C. At the conclusion of PK studies, all rats were euthanized by exsanguination under the surgical anesthesia.
The concentrations of G2.2 and lipid analogs in plasma were determined by the quantitative fluorimetry assay in which plasma samples were first diluted 2-fold (v/v) with 0.05 M PBS (pH 7.4), then an equal volume of methanol added and the mixture centrifuged at 11,750 g for 5 min. The supernatants were transferred to black 96 well-plates and the fluorescence at 528 nm (G2.2) or 460 nm (lipid analog) (λEX=340 nm) read using a microplate reader. Reference profiles, prepared for concentrations in the range of 0.5 and 50 μg/mL (R^2=0.98-0.99), were used to calculate plasma concentration at every time point.
The PK profile was analyzed using conventional analysis. The parameters deduced included peak plasma concentration (Cmax), the time required to reach Cmax (Tmax), the plasma concentration-time curve (AUC0-∞), the terminal half-life (t1/2), the apparent clearance (CL/F) and the apparent pseudo-steady state volume of distribution (Vpss/F). The absolute bioavailability (F) was deduced for G2.2, while relative bioavailability was deduced for lipid analogs.

The test system of data set [2] is HT-29 cells (monolayer). The data set can be described thus: Monolayer MTT growth assay, HT-29. It is filed as cell-based. The following applies: HT-29 monolayer growth. The protocol: (§1) The inhibitory potential of lipid-modified compounds of Formula I against CSCs was tested using a primary spheroids inhibition assay in various cancer cell lines including HT-29, RKO, HCT-116, LS1034, HC-15, WiDr, SW480, COLO205, NCI-H508, SW1116, LS174T, KM12 etc. Cells were grown both under monolayer and spheroid conditions as described in earlier work [Patel, N. J., et al. ACS Chem. Biol. 2014, 9, 1826-1833]. For primary sphere assay, cells were plated in non-treated, low adhesion, 96 wells plate at the concentration of 100 cells/100 μL/well in stem cell media (SCM) that consisted of DMEM:F12:AA, supplemented with 1×B27, 20 ng/mL epidermal growth factor, and 10 ng/mL fibroblast growth factor. After 4 h of incubation, vehicle (control) or G2.2 and its lipid analogs at the desired concentrations were added to each well (at least in triplicates for each sample). On day five, numbers of spheres ranging from 50 to 150 micrometers in diameter were counted using phase contrast microscope and percent inhibition was calculated compared to control. For monolayer assay, approximately 2.5×10^3 cells/100 μL/well were plated in 96-well tissue culture treated plate. After overnight incubation at 37° C. vehicle (control) or G2.2 was added at the desired concentration and the cells were further incubated for 60-72 h. At the end of the incubation, 10 μL of 5 mg mL^−1 MTT solution ((3-(4,5-dimethylthiazol-2-yl)-2,5-diphenyltetrazolium bromide, Sigma) made in phosphate buffered saline (PBS) (Gibco) was added to each well and incubated for minimum of 2 to 3 h until crystals formation was observed. Following this, 150 μL of 4 mM HCl (Sigma) in isopropanol solution was added dropwise to each well and the mixture was triturated until the crystals dissolve completely. Finally, the plate was placed on the spectrophotometer reader and read at 590 nm and growth inhibition was calculated as percent of control.
On the technique in general: Tetrazolium dyes change colour on reduction, which living cells bring about.

Data set [3] relates to activated partial thromboplastin time (APTT), human plasma. The data set can be described thus: APTT clotting assay in human plasma. Type of data set: biochemical. The following applies: for Safety Index: APTT doubling concentration vs HT-29 CSC IC50; for Concentration required to double APTT: citrated human plasma. The protocol:
Glycosaminoglycans, especially heparin/HS, are known for their ability to inhibit the coagulation system. Because G2.2 and its lipid analogs are mimetics of GAGs, it is important to study their effects on the coagulation system. We measured the concentration of lipid-modified G2.2 analogs required to double the activated partial thromboplastin time (APTT; Table 4). The experiments were performed as described in earlier work [Henry, B. L., et al. Blood Coag Fibrinol 2009, 20, 27-34]. Briefly, a standard one-stage recalcification assay in a BBL Fibrosystem fibrometer (Becton-Dickinson, Sparles, MD) was used to measure clotting times in human plasma. A 10 μL aqueous solution of the lipidic analog at a desired concentration was mixed with 90 μL of citrated human plasma and 100 μL of prewarmed APTT reagent. After incubation for 4 min at 37° C., clotting was initiated by adding 100 μL of prewarmed 25 mM CaCl2), and the time to clot was noted. The concentration of the analog required to double the clotting time was calculated from the clotting time versus concentration profile. In general, cholesterol modification of G2.2 increased its anticoagulation potency.

The test system of data set [4] is HT-29 spheroids (CSCs). The data set can be described thus: Primary spheroids inhibition assay, HT-29. Type of data set: cell-based. The protocol: as §1
Data set [5] has as its system RKO colon spheroids. The data set can be described thus: Primary spheroids inhibition assay, RKO. It is filed as cell-based. The following applies: FIG. 6. The protocol:
The inhibitory potential of lipid-modified compounds of Formula I against CSCs was tested using a primary spheroids inhibition assay in various cancer cell lines including HT-29, RKO, HCT-116, LS1034, HC-15, WiDr, SW480, COLO205, NCI-H508, SW1116, LS174T, KM12 etc. Cells were grown both under monolayer and spheroid conditions as described in earlier work [Patel, N. J., et al. ACS Chem. Biol. 2014, 9, 1826-1833]. […] On day five, numbers of spheres ranging from 50 to 150 micrometers in diameter were counted using phase contrast microscope and percent inhibition was calculated compared to control. […] At the end of the incubation, 10 μL of 5 mg mL^−1 MTT solution ((3-(4,5-dimethylthiazol-2-yl)-2,5-diphenyltetrazolium bromide, Sigma) made in phosphate buffered saline (PBS) (Gibco) was added to each well and incubated for minimum of 2 to 3 h until crystals formation was observed. Following this, 150 μL of 4 mM HCl (Sigma) in isopropanol solution was added dropwise to each well and the mixture was triturated until the crystals dissolve completely. Finally, the plate was placed on the spectrophotometer reader and read at 590 nm and growth inhibition was calculated as percent of control.

The conditions of data set [6]: background statement; cited from earlier work.
Data set [7] relates to cancerous tissue-derived primary human spheroids. The data set can be described thus: Patient-derived spheroid growth, cancerous colon tissue. The following applies: 5 μM. It is filed as cell-based.
Data set [8] relates to normal colon tissue spheroids. The data set can be described thus: Patient-derived spheroid growth, normal colon tissue. The following applies: 5 μM. It is filed as cell-based, human.
In data set [9] the test system is xenografts-derived cells (HT-29), 3° spheroids. The data set can be described thus: Ex vivo tertiary spheroid formation of xenograft-derived cells. It is filed as cell-based. The following applies: cells from treated xenografts, a week after last dose. The text has this:
We also utilized our earlier observation that CSCs/progenitors are enhanced several-fold in spheroid culture and assessed the xenografts-derived cells for retention of tertiary spheroid growth inhibition profiles to distinguish between non self-renewing progenitors and self-renewing CSCs ex vivo.

Data set [10] concerns CSC-induced HT-29 xenografts. The data set can be described thus: CSC-induced HT-29 xenograft model. It is filed as in vivo.
Description: Briefly, the protocols were approved by the Animal Component of Research Protocol Committee at McGuire VA Medical Center, Richmond, VA Xenografts were generated by injecting 10^5 CD133 hi/CXCR4hi (Dual hi) fluorescence-activated cell sorter (FACS) isolated HT29 cells suspended in 50% reduced growth factor Matrigel (BD Bioscience; in 50 μL sterile PBS) into the right flank of 6-week-old, female NCr nude mice (Taconic Farms) subcutaneously.
Once the tumors reached 50 mm^3, mice were randomized to either of the three groups (vehicle, 200 mg/kg G2.2, or 100 mg/kg IIb) and dosed i.p three times a week for three weeks. Tumor measurements on each animal were made 3 times a week with Vernier calipers, and tumor volume was calculated using the formula: V=W^2 (L)/2, where V is the volume in mm^3, and W and L are the width and length in mm. […] The remainder of animals were monitored till they reached predefined humane end-points. Animals were sacrificed per Institutional Animal Care and Use Committee—approved methods of euthanasia.
The mark [11] stands for this setting: HT-29 CSCs, Table 4, read-out: IC50 (HT-29 CSCs).
The mark [12] stands for this setting: HT-29 spheroid growth, read-out: Spheroid IC50.

Consider `CC(C)CCCC(C)C1CCC2C3CC=C4CC(OCCCCCCCCOc5cc(-c6oc7cc(OS(=O)(=O)[O-])cc(OCCCOc8cc(OS(=O)(=O)[O-])cc9oc(-c%10ccc(OS(=O)(=O)[O-])c(OS(=O)(=O)[O-])c%10)c(OS(=O)(=O)[O-])c(=O)c89)c7c(=O)c6OS(=O)(=O)[O-])ccc5OS(=O)(=O)[O-])CCC4(C)C3CCC12C.[Na+].[Na+].[Na+].[Na+].[Na+].[Na+].[Na+]` (centres unmarked) [IIc], for which the “absorption compared with G2.2” value in data set [1] (PO, rats) is “far greater than that for G2.2”. For the same molecule, in [2], the “Monolayer IC50” value amounted to 1079 ± 15%. Further, the “Safety Index” value in data set [3] is 63-fold. The “Concentration required to double APTT” value in data set [3] worked out at 50 µM. The IC50 in [4] (setting [11]) and in [4] (setting [12]) was 0.8 ± 0.2 µM throughout.

In the case of `O=c1c(OS(=O)(=O)O)c(-c2ccc(OS(=O)(=O)O)c(OS(=O)(=O)O)c2)oc2cc(OS(=O)(=O)O)cc(OCCCOc3cc(OS(=O)(=O)O)cc4oc(-c5ccc(OS(=O)(=O)O)c(OS(=O)(=O)O)c5)c(OS(=O)(=O)O)c(=O)c34)c12` [Compound G2.2], the “inhibition of RKO colon spheroids” value in [5] is recorded as “dose-dependent inhibition”. In addition, the distribution phase result in data set [1] (G2.2 IV bolus 50 mg/kg, rats) is listed as “about 1.5 hours”. For the same molecule, in data set [1] (IP 200 mg/kg, rat), the “AUC0-∞ (area under the plasma concentration v/s time curve)” value was 6398 µg·h/mL; the Cmax (in general, the maximum level reached in the sampled fluid or tissue) was determined as 925 µM; the “Cmax (maximum plasma concentration)” value was approximately 1350 µg/mL; the “t1/2 (terminal half-life)” value amounted to 3 h. Further, in data set [1] (IP 200 mg/kg, rat, 200 mg/kg), the “F (absolute bioavailability)” value was 30%. Also, the terminal half-life in [1] (IV bolus 50 mg/kg, rats) was determined as 4.4 h. In [1] (PO 200 mg/kg, rats), the “AUC0-∞ (area under the plasma concentration v/s time curve)” value was determined as 584 µg·h/mL, the maximum concentration (Cmax) worked out at 55.6 µM and the “t1/2 (terminal half-life)” value amounted to 4.6 h. In addition, in data set [1] (PO 200 mg/kg, rats, 200 mg/kg), the “Cmax (maximum plasma concentration)” value was 81.2 µg/mL and 81 µg/mL; the “F (absolute bioavailability)” value was 3%. Besides, the IC50 – broadly, the point on the concentration scale where inhibition reaches its midpoint – in data set [2] is more than 500 µM. Besides, in [3], the “Safety Index” value is reported as 22-fold and the “Concentration required to double APTT” value was determined as 640 µM. In addition, in data set [6], the half-life (as a rule, the time in which the quantity being followed falls by half) was 4 h and the oral bioavailability was less than 1%. For the same molecule, the IC50 in [4] (setting [11]) was found to be 29 ± 1 µM. The IC50 in data set [4] (setting [12]) came to 29 ± 1 µM.

Consider `CC(C)CCCC(C)C1CCC2C3CC=C4CC(OCCCCCOc5cc(-c6oc7cc(OS(=O)(=O)[O-])cc(OCCCOc8cc(OS(=O)(=O)[O-])cc9oc(-c%10ccc(OS(=O)(=O)[O-])c(OS(=O)(=O)[O-])c%10)c(OS(=O)(=O)[O-])c(=O)c89)c7c(=O)c6OS(=O)(=O)[O-])ccc5OS(=O)(=O)[O-])CCC4(C)C3CCC12C.[Na+].[Na+].[Na+].[Na+].[Na+].[Na+].[Na+]` (centres unmarked) [IIb], for which the “inhibition of spheroid growth formation, cancerous tissue” value in data set [7] was “significantly inhibited”. Further, the “inhibition of RKO colon spheroids” value in data set [5] is reported as “dose-dependent inhibition”. In addition, the “peaks in the plasma concentration vs. time profile” value in [1] (PO nominal 50 mg/kg, rats, 0-8 h) was “At least 2”. Moreover, the “effect on spheroid growth formation, normal tissue” value in data set [8] is “without any effect”. Further, the IC50 was more than 500 µM in data set [2], 8.2 ± 1.5 µM in [4] (setting [11]) and 8.2 ± 1.5 µM in data set [4] (setting [12]). Further, the “decrease in 3° spheroid formation vs vehicle controls” value in data set [9] is listed as 2.6 fold. The “Safety Index” value in [3] is given as 6-fold. The “Concentration required to double APTT” value in [3] was 48 µM. The “decrease in tumor volume compared with vehicle controls” value in data set [10] (100 mg/kg i.p., 3 times a week x 3 weeks, end of treatment) is listed as more than 80%. For the same molecule, in data set [10] (100 mg/kg i.p., nude mice), the “gross toxicity (animal body weight)” value is listed as “did not show any gross toxic effects; also recorded: no gross toxicity”. Moreover, in data set [10] (100 mg/kg i.p., vs vehicle), the “CSC markers (DCLK1, LGR5) and self-renewal factor (BMI-1), western blot of xenografts” value was “robust reduction; also recorded: reduction in CSC markers”. Besides, the “tumor volume compared to vehicle treated mice” value in data set [10] (100 mg/kg, i.p.) is given as “significant reduction in tumor volume”. Also, the “effect on tumor volume compared to G2.2 (200 mg/kg)” value in data set [10] (IIb 100 mg/kg i.p.) is on record as more than 2 fold. The “CSC markers, flow cytometry analysis of mice xenografts” value in data set [10] (IIb treated mice) is reported as “reduction in CSC markers”. Besides, in data set [10] (overall in vivo studies), the “in vivo potency relative to G2.2” value is approximately 4 fold.

For the molecule Enoxaparin [reference compound], the “Concentration required to double APTT” value in data set [3] was 2.5 µM.
